Reference: US7704995B2 (Exelixis, Inc., priority 2003, dated 2010)

Target: T1, Chk1 (Homo sapiens, UniProt O14757)
T1 construct: purchased Upstate Biotechnology
T1 sequence (O14757 1-476): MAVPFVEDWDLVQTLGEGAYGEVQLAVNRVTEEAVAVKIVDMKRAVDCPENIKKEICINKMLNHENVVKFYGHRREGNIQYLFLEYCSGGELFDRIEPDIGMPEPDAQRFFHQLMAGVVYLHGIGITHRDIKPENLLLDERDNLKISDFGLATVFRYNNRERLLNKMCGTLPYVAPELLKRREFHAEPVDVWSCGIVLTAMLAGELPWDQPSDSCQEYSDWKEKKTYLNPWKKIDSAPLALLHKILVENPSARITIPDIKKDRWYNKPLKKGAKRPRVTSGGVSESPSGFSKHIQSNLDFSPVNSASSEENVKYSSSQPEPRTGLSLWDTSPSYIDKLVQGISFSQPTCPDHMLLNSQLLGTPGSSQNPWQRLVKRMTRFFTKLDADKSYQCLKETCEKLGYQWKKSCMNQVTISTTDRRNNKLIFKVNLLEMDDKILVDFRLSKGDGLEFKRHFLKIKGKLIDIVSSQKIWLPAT
Experiment: Chk1 kinase assay: incorporation of γ-33P ATP into immobilized myelin basic protein
Format: biochemical
Settings: Table 11; Chk1 only; read-out: Chk1 IC50
In short: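 Enzyme activity is measured as γ-33P transfer from ATP onto immobilized MBP over 1 h at room temperature, with Chk1 at 10 nM/10 μM unlabeled ATP and Chk2 at 20 nM/30 μM unlabeled ATP. Compounds are tested in 1% DMSO.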

IC50: 1 to 10 µM
SMILES: Cc1noc(C)c1NC(=O)NCCNC(=O)c1nc(-c2cccc(C(=O)NCc3ccccc3)c2)cnc1N [Example 666, 3-amino-N-[2-({[(3,5-dimethylisoxazol-4-yl)amino]carbonyl}amino)ethyl]-6-(3-{[(phenylmethyl)amino]carbonyl}phenyl)pyrazine-2-carboxamide]
